# Results from ChEMBL document CHEMBL1649335, “Discovery of {1-[4-(2-{hexahydropyrrolo[3,4-c]pyrrol-2(1H)-yl}-1H-benzimidazol-1-yl)piperidin-1-yl]cyclooctyl}methanol, systemically potent novel non-peptide agonist of nociceptin/orphanin FQ receptor as analgesic for the treatment of neuropathic pain: design, synthesis, and structure-activity …” (Bioorg Med Chem, 2010).
# Calls of active or inactive are those of the source.
# Tests used:
# [1] = organism: Rattus norvegicus; test: Inhibition of rat GABA receptor at 1 uM relative to control
# [2] = organism: Rattus norvegicus; test: Inhibition of rat GABA transporter at 1 uM relative to control
# [3] = molecular target: monoamine oxidase B (Homo sapiens, UniProt P27338); test: Inhibition of human monoamine oxidase B at 1 uM relative to control
# Chain of monoamine oxidase B (P27338 whole entry): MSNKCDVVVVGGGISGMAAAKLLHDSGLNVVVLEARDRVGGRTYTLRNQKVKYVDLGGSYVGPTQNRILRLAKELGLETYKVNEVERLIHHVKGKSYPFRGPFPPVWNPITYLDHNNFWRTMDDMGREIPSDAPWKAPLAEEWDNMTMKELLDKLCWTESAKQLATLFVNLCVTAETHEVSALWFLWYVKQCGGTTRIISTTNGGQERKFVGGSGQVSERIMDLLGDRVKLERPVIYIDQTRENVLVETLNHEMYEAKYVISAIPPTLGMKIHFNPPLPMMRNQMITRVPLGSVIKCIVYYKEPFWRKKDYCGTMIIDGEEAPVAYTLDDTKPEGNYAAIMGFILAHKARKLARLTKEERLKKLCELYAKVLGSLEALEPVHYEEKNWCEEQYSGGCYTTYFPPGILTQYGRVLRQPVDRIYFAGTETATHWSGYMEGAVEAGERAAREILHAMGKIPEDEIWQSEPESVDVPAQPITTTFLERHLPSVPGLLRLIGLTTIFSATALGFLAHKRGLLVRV
# [4] = molecular target: D(4) dopamine receptor (Homo sapiens) (UniProt P21917); test: Inhibition of human dopamine D4.4 receptor at 1 uM relative to control
# Chain of D(4) dopamine receptor (Homo sapiens) (P21917 whole entry): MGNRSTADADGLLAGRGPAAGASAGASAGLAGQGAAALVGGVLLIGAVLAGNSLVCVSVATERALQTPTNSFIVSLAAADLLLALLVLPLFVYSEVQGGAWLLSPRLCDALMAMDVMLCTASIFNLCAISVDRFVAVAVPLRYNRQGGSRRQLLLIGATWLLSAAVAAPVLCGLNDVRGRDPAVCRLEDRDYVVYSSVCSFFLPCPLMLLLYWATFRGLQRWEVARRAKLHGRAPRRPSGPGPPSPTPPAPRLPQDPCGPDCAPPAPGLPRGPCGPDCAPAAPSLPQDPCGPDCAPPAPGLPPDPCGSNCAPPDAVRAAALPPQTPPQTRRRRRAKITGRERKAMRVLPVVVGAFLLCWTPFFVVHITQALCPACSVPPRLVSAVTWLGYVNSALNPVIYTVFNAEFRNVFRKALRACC
# [5] = Drug level Sprague-Dawley rat cerebrospinal fluid at 10 mg/kg, sc after 0.5 hrs; format: ADME, organism-based; design: dose 10 mg/kg, route subcutaneous; conditions: read-out: Drug uptake
# [6] = system: Rattus norvegicus; test: Toxicity in von Frey hair mechanically stimulated neuropathic pain Sprague-Dawley rat model assessed as respiratory depression at up to 30 mg/kg, sc; format: organism-based; design: dose 30 mg/kg, route subcutaneous; conditions: in vivo
# [7] = molecular target: Small conductance calcium-activated potassium channel protein 1 (Rattus norvegicus) (UniProt P70606); test: Inhibition of rat SKCa channel at 1 uM relative to control
# Chain of Small conductance calcium-activated potassium channel protein 1 (Rattus norvegicus) (P70606 whole entry): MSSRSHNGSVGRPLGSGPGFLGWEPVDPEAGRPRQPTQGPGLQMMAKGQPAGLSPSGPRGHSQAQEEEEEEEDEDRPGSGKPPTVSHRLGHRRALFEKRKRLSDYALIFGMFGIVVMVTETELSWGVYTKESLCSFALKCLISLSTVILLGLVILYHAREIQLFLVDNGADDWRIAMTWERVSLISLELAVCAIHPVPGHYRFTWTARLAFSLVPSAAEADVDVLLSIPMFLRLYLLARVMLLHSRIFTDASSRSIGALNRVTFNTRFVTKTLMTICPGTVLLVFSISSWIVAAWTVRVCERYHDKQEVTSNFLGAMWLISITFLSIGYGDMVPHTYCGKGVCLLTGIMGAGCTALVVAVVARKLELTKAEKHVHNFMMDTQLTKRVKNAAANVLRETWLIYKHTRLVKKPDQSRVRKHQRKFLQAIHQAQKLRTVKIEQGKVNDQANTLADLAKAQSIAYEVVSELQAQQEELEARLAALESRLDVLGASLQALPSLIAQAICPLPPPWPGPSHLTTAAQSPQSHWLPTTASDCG
# [8] = system: Rattus norvegicus; test: Antiallodynic activity against von Frey hair mechanically stimulated neuropathic pain in Sprague-Dawley rat assessed as increase of response threshold per site at 55 nmol/site, icv after 20 mins relative to control; format: functional
# [9] = system: Rattus norvegicus; test: Antiallodynic activity against von Frey hair mechanically stimulated neuropathic pain in Sprague-Dawley rat assessed as increase of response threshold per site at 55 nmol/site administered intrathecally after 1 hr relative to control; format: functional
# [10] = molecular target: Sodium-dependent dopamine transporter (Homo sapiens) (UniProt Q01959); test: Inhibition of human dopamine transporter at 1 uM relative to control
# Chain of Sodium-dependent dopamine transporter (Homo sapiens) (Q01959 whole entry): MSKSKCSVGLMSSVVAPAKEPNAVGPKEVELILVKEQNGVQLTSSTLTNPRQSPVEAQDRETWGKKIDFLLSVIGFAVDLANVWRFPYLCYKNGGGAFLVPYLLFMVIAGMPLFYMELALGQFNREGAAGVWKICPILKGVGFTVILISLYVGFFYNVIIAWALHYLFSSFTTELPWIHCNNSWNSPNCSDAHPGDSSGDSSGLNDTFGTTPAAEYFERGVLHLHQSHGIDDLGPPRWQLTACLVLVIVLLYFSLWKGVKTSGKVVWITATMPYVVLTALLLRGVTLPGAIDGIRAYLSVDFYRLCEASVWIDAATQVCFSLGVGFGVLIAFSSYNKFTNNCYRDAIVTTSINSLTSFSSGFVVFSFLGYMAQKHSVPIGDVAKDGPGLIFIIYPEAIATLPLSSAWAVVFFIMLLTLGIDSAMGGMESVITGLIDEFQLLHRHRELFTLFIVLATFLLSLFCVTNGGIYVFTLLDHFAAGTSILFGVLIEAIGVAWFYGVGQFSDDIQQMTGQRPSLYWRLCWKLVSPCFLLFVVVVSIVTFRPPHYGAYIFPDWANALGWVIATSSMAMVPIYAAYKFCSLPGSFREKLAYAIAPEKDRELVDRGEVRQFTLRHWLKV
# [11] = system: Rattus norvegicus; test: Antiallodynic activity against von Frey hair mechanically stimulated neuropathic pain in sc dosed Sprague-Dawley rat assessed as increase of response threshold after 1 hr; format: functional
# [12] = molecular target: D(2) dopamine receptor (Homo sapiens) (UniProt P14416); test: Inhibition of human dopamine D2 receptor at 1 uM relative to control
# Chain of D(2) dopamine receptor (Homo sapiens) (P14416 whole entry): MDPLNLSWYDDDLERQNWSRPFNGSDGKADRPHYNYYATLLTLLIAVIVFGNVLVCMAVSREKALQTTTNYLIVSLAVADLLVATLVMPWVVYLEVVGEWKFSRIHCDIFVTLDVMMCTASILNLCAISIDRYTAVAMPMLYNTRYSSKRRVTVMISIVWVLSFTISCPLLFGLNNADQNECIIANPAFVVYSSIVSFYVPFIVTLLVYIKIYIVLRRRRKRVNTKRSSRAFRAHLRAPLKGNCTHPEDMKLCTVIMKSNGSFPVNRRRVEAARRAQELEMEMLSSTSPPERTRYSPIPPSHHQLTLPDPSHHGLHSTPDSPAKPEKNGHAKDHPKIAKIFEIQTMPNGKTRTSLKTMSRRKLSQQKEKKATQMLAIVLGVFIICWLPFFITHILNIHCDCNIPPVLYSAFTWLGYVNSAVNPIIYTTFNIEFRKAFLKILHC
# [13] = organism: Rattus norvegicus; test: Inhibition of rat AMPA receptor at 1 uM relative to control
# [14] = molecular target: D(1A) dopamine receptor (Homo sapiens) (UniProt P21728); test: Inhibition of human dopamine D1 receptor at 1 uM relative to control
# Chain of D(1A) dopamine receptor (Homo sapiens) (P21728 whole entry): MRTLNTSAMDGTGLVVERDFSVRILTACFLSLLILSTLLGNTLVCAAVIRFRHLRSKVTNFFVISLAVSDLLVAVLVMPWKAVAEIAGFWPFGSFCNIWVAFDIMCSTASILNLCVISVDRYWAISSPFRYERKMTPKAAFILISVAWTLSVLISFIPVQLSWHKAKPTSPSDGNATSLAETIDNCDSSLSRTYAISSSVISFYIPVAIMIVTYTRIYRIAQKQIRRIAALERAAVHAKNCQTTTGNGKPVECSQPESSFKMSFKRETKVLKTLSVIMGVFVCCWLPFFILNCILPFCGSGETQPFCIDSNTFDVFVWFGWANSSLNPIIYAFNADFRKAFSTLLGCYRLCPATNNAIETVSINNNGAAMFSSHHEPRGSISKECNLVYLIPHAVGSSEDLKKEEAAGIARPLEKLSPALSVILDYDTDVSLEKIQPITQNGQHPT
# [15] = system: Rattus norvegicus; test: Antiallodynic activity against von Frey hair mechanically stimulated neuropathic pain in Sprague-Dawley rat assessed as effect on allodynia in contralateral paw at 1 to 30 mg/kg, sc after 2 hrs; format: functional, organism-based
# [16] = molecular target: Acetylcholinesterase (Homo sapiens) (UniProt P22303); test: Inhibition of human acetylcholine esterase at 1 uM relative to control
# Chain of Acetylcholinesterase (Homo sapiens) (P22303 whole entry): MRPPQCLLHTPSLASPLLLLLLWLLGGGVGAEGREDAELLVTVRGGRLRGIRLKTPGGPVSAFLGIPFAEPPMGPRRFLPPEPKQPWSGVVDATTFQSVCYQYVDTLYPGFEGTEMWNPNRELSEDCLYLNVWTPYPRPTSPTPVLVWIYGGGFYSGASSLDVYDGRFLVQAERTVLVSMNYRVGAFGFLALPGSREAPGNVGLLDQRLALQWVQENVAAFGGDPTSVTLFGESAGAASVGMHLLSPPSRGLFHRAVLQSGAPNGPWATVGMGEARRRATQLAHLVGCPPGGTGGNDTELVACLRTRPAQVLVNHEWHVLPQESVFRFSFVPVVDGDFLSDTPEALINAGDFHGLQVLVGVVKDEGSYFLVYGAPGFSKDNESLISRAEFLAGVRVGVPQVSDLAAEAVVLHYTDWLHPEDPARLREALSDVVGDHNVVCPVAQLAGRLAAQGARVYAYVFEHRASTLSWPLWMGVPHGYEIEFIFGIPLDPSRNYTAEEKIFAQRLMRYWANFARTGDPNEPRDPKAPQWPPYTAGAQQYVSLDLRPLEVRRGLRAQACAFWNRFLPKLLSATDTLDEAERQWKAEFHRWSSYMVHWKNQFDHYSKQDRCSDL
# [17] = system: Rattus norvegicus; test: Antiallodynic activity against von Frey hair mechanically stimulated neuropathic pain in Sprague-Dawley rat assessed as increase of response threshold at 30 mg/kg, sc after 30 mins relative to control; format: functional; conditions: route subcutaneous
# [18] = system: Rattus norvegicus; test: Toxicity in von Frey hair mechanically stimulated neuropathic pain Sprague-Dawley rat model assessed as sedation effect at up to 170 nmol/site, administered intrathecally; format: organism-based; conditions: in vivo, icv_or_intrathecal
# [19] = organism: Rattus norvegicus; test: Inhibition of rat sigma receptor at 1 uM relative to control
# [20] = organism: Rattus norvegicus; test: Inhibition of rat phospholipase C at 1 uM relative to control
# [21] = Drug level Sprague-Dawley rat spinal cord at 10 mg/kg, sc after 0.5 hrs; format: ADME, organism-based; design: dose 10 mg/kg, route subcutaneous; conditions: read-out: Drug uptake
# [22] = molecular target: Substance-K receptor (Homo sapiens) (UniProt P21452); test: Inhibition of human tachykinin NK2 receptor at 1 uM relative to control
# Chain of Substance-K receptor (Homo sapiens) (P21452 whole entry): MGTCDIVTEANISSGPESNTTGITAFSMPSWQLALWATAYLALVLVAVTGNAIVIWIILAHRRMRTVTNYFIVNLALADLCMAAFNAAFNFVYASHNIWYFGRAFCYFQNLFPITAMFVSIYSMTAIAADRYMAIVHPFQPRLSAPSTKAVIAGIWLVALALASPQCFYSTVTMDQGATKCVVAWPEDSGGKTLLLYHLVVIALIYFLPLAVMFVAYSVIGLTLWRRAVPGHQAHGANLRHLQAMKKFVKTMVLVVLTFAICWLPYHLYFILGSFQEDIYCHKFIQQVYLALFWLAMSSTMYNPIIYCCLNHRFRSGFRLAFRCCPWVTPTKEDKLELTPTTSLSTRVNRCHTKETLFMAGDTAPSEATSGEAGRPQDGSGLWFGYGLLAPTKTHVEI
# [23] = molecular target: Muscarinic acetylcholine receptor M1 (Homo sapiens) (UniProt P11229); test: Inhibition of human muscarinic M1 receptor at 1 uM relative to control
# [24] = system: Rattus norvegicus; test: Antiallodynic activity against von Frey hair mechanically stimulated neuropathic pain in sc dosed Sprague-Dawley rat assessed as increase of response threshold after 2 hrs; format: functional
# [25] = molecular target: Muscarinic acetylcholine receptor M3 (Homo sapiens) (UniProt P20309); test: Inhibition of human muscarinic M3 receptor at 1 uM relative to control
# Chain of Muscarinic acetylcholine receptor M3 (Homo sapiens) (P20309 whole entry, looked up): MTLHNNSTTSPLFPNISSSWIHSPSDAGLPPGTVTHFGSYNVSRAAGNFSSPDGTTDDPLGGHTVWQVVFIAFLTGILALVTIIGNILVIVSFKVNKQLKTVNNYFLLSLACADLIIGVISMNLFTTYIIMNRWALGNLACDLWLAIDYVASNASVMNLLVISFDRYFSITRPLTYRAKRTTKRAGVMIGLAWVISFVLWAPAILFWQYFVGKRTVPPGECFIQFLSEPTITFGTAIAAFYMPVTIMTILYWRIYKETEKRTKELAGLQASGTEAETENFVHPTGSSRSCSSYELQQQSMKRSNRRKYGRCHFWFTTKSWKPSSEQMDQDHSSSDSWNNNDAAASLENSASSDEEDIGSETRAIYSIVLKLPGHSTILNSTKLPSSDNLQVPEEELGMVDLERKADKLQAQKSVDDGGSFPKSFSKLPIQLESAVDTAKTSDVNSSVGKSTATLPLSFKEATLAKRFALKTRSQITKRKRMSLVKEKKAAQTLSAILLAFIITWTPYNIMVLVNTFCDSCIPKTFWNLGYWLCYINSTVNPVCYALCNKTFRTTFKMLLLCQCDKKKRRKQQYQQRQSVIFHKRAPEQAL
# [26] = system: Rattus norvegicus; test: Antiallodynic activity against von Frey hair mechanically stimulated neuropathic pain in sc dosed Sprague-Dawley rat assessed as increase of response threshold; format: functional, organism-based
smiles,measurement,setting,value
OCC1(N2CCC(n3c(N4CC5CNCC5C4)nc4ccccc43)CC2)CCCCCCC1 (stereo unspecified),inhibition,[1],< 10%
same,inhibition,[2],24%
same,inhibition at 1 µM,[3],< 10%
same,inhibition,[4],< 10%
same,concentration at 0.5 h,[5],11 ng/mL
same,Activity,[6],Non-toxic
same,inhibition,[7],< 10%
same,Activity,[8],23.7%
same,Activity,[9],31.1%
same,inhibition,[10],< 10%
same,ED50,[11],10.8 mg/kg
same,inhibition,[12],< 10%
same,inhibition,[13],< 10%
same,inhibition,[14],< 10%
same,Activity,[15],inactive
same,inhibition,[16],< 10%
same,Activity,[17],57.6%
same,Activity,[18],Non-toxic
same,inhibition,[19],10%
same,inhibition,[20],< 10%
same,concentration at 0.5 h,[21],48 ng/mL
same,inhibition,[22],< 10%
same,inhibition,[23],15%
same,ED50,[24],> 30 mg/kg
same,inhibition,[25],< 10%
same,Activity,[26],Dose-dependent effect
